Our source for the inhibition values is patent publication US8952034B2, “Fused heterocyclic compounds as ion channel modulators” (Gilead Sciences, Inc., priority 2009, dated 2015).

The assay concerns the target wild-type human cardiac sodium channel, hNav1.5 (Homo sapiens, UniProt Q14524). The assay is described as follows: Late INa screening assay (automated whole cell patch clamp, PatchXpress). The class given is cell-based. To be noted: HEK293 cells expressing hNav1.5, late INa generated with 10 μM Tefluthrin (or 50 nM ATX II); for inhibition at 1 µM: compound at 1 μM, read-out: LateINa_1 uM (percent block of late INa); for inhibition at 10 µM: compound at 10 μM, read-out: LateINa_10 uM (percent block of late INa). As for the experimental part:
The late sodium current (Late INa) and peak sodium current (Peak INa) assays are performed on an automated electrophysiology platform, PatchXpress 7000A (MDS Analytical Technologies, Sunnyvale, Calif.), which uses the whole cell patch clamp technique to measure currents through the cell membrane of up to 16 cells at a time. The assay uses an HEK293 (human embryonic kidney) cell line heterologously expressing the wild-type human cardiac sodium channel, hNav1.5, purchased from Millipore (Billerica, Mass.). No beta subunits were coexpressed with the Na channel alpha subunit. Cells are maintained with standard tissue culture procedures and stable channel expression is maintained with 400 μg/ml Geneticin in the culture medium. […] Experiments are carried out at 24-27° C.
For both the Late INa and Peak INa assays, series resistance compensation is set to 50% and whole-cell compensation is performed automatically. […] Currents through open sodium channels are automatically recorded and stored in the DataXpress2 database (MDS Analytical Technologies, Sunnyvale, Calif.). Analysis is performed using DataXpress2 analysis software and data are compiled in Excel.
Compound stocks are routinely made in glass vials to 10 mM in dimethyl sulfoxide (DMSO). In some cases, when compounds are not soluble in DMSO, they are made in 100% ethanol. Stocks are sonicated as necessary. The extracellular solution for screening Late INa is composed of: 140 mM NaCl, 4 mM KCl, 1.8 mM CaCl2, 0.75 mM MgCl2, and 5 mM HEPES with pH adjusted to 7.4 using NaOH. The extracellular solution for screening Peak INa is composed of: 20 mM NaCl, 120 mM N-methyl-D glucamine, 4 mM KCl, 1.8 mM CaCl2, 0.75 mM MgCl2, and 5 mM HEPES with pH adjusted to 7.4 using HCl. The intracellular solution used to perfuse the inside of the cells for both the Late INa and Peak INa assays contains: 120 mM CsF, 20 mM CsCl, 5 mM EGTA, 5 mM HEPES and pH adjusted to 7.4 with CsOH. […] The 0Na extracellular solution used at the end of each experiment for the Late INa and Peak INa assays to measure baseline current contains: 140 mM N-methyl-D-glucamine; 4 mM KCl; 1.8 mM CaCl2; 0.75 mM MgCl2; 5 mM HEPES and pH was adjusted to 7.4 with HCl.
For the Late INa assay, sodium channels are activated every 10 seconds (0.1 Hz) by depolarizing the cell membrane to −20 mV for 250 milliseconds (ms) from a holding potential of −120 mV. In response to a −20 mV voltage step, typical Nav1.5 sodium currents activate rapidly to a peak negative current and then inactivate nearly completely within […].
All compounds are tested to determine their activity in blocking the late sodium current. Late INa current is generated by adding 10 μM Tefluthrin (pyrethroid) to the extracellular solution while recording Na currents For some experiments, 50 nM ATX II (sea anemone toxin), another late INa activator, was used to generate the late component. […] After establishing the whole cell recording configuration, late INa activators are added to each well 4 times over a 16-17 minute period so that the late component of the Na current reaches a stable value. […] Measurements are made at the end of exposure to the third compound addition and values are normalized to the current level when all Na^+ is removed from the extracellular solution after two additions of 0Na-ECF. Results are reported as percent block of late INa
A general note: The patch-clamp technique gives a direct electrical read-out from membranes.

Sequence of wild-type human cardiac sodium channel, hNav1.5 (Q14524 whole entry): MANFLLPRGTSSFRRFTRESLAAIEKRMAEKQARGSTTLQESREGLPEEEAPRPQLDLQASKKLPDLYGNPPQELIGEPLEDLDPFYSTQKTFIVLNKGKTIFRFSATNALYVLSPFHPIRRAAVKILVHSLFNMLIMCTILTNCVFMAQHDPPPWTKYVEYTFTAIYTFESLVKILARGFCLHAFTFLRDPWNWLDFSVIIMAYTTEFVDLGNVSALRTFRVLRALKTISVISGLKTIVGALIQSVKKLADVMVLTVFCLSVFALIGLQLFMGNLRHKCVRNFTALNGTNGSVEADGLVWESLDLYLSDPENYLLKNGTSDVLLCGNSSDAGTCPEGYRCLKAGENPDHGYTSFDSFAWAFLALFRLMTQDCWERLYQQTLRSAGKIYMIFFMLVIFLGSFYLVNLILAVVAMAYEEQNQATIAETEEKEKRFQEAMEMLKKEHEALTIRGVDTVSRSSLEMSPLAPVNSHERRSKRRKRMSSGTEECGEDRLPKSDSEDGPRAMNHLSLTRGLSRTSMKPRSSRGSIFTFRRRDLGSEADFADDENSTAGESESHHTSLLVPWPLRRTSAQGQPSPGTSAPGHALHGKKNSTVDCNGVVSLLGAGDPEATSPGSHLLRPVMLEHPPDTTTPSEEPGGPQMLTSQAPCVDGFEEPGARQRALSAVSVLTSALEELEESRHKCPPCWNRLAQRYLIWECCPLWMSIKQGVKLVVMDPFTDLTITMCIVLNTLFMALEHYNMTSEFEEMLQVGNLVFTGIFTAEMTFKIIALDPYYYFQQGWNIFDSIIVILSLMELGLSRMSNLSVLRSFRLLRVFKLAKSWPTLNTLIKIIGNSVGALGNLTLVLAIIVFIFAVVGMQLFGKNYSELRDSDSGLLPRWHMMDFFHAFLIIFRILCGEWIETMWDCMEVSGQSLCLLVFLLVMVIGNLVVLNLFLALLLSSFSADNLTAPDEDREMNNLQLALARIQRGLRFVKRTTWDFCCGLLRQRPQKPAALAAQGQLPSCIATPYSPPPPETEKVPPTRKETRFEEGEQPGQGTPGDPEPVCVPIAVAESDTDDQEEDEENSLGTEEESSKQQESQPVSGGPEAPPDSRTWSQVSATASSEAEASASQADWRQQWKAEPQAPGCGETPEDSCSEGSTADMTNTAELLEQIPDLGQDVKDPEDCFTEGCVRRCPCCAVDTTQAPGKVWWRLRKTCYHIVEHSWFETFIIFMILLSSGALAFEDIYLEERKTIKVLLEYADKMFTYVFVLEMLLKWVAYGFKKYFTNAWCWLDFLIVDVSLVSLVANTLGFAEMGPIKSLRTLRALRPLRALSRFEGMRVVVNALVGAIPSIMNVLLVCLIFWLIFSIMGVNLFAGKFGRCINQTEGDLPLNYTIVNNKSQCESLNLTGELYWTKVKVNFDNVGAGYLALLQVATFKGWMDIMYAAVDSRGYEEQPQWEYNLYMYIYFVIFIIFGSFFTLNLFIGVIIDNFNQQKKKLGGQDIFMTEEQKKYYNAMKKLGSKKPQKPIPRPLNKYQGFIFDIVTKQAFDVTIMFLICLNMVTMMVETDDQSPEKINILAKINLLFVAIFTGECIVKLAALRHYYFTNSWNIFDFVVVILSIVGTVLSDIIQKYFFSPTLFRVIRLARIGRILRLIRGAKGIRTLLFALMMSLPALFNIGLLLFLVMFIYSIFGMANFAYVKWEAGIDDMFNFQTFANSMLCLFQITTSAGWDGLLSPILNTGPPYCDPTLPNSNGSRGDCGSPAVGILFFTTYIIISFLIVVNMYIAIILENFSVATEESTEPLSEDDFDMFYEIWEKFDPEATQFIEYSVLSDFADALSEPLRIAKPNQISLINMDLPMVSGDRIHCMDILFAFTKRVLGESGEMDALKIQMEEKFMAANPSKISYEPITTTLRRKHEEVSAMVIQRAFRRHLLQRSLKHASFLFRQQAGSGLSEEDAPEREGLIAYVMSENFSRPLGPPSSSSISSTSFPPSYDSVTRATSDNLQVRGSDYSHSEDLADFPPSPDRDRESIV

With `FC(F)(F)COc1ccc(-c2ccc3cnc(C(F)(F)F)n3c2)cc1` [BHN-28, 6-[4-(2,2,2-trifluoroethoxy)phenyl]-3-(trifluoromethyl)imidazo[1,5-a]pyridine], the inhibition at 1 µM is 46.1% and the inhibition at 10 µM is 78.3%.
Consider `COc1ccc(-c2ccc3cnc(C(F)(F)F)n3c2)cc1` [BHN-30, 6-(4-methoxyphenyl)-3-(trifluoromethyl)imidazo[1,5-a]pyridine], for which the inhibition at 1 µM amounted to 24.6% and the inhibition at 10 µM was 77.3%.
For the compound `FC(F)(F)Cc1nnc2ccc(-c3ccc(Oc4ccccc4)cc3)nn12` [BHN-31, 6-(4-phenoxyphenyl)-3-(2,2,2-trifluoroethyl)[1,2,4]triazolo[4,3-b]pyridazine], the inhibition at 1 µM turned out to be 57.5% and the inhibition at 10 µM amounted to 82.6%.
For `CC(C)c1nnc2ccc(-c3ccc(Oc4ccccc4)cc3)nn12` [BHN-32, 6-(4-phenoxyphenyl)-3-(propan-2-yl)[1,2,4]triazolo[4,3-b]pyridazine], the inhibition at 1 µM worked out at 63.4% and the inhibition at 10 µM was 83.4%.
`Cc1cc(OC(F)(F)F)ccc1-c1ccc2nnc(C(C)C)n2n1` [BHN-33, 6-[2-methyl-4-(trifluoromethoxy)phenyl]-3-(propan-2-yl)[1,2,4]triazolo[4,3-b]pyridazine]: the inhibition at 1 µM was 59.2% and the inhibition at 10 µM worked out at 75.9%.
`FC(F)(F)Oc1ccc(-c2ccc3c(-c4ccccc4)nc(C(F)(F)F)n3c2)cc1` [BHN-34, 1-phenyl-6-[4-(trifluoromethoxy)phenyl]-3-(trifluoromethyl)imidazo[1,5-a]pyridine]: the inhibition at 10 µM was 33.4%.
As to `CC(C)(C)c1nnc2ccc(-c3ccc(Oc4ccccc4)cc3)nn12` [BHN-35, 3-tert-butyl-6-(4-phenoxyphenyl)[1,2,4]triazolo[4,3-b]pyridazine], the inhibition at 10 µM amounted to 68.6%.
As for `CC(C)(C)c1nnc2ccc(-c3ccc(OCC(F)(F)F)cc3)nn12` [BHN-36, 3-tert-butyl-6-[4-(2,2,2-trifluoroethoxy)phenyl][1,2,4]triazolo[4,3-b]pyridazine], the inhibition at 10 µM turned out to be 64.5%.
Consider `CCc1nnc2ccc(-c3ccc(Oc4ccccc4)cc3)nn12` [BHN-38, 3-ethyl-6-(4-phenoxyphenyl)[1,2,4]triazolo[4,3-b]pyridazine], for which the inhibition at 1 µM is 54.5% and the inhibition at 10 µM turned out to be 79.3%.
`c1ccc(Oc2ccc(-c3ccc4nnc(C5CC5)n4n3)cc2)cc1` [BHN-39, 3-cyclopropyl-6-(4-phenoxyphenyl)[1,2,4]triazolo[4,3-b]pyridazine]: the inhibition at 1 µM was found to be 44.4% and the inhibition at 10 µM is 74.3%.
With `N#Cc1ccc(-c2nnc3ccc(-c4ccc(Oc5ccccc5)cc4)nn23)cc1` [BHN-40, 4-[6-(4-phenoxyphenyl)[1,2,4]triazolo[4,3-b]pyridazin-3-yl]benzonitrile], the inhibition at 10 µM came to 38.2%.
On to `Cc1cc(OC(F)(F)F)ccc1-c1ccc2nnc(-c3ccc(C#N)cc3)n2n1` [BHN-41, 4-{6-[2-methyl-4-(trifluoromethoxy)phenyl][1,2,4]triazolo[4,3-b]pyridazin-3-yl}benzonitrile], for which the inhibition at 10 µM turned out to be 59.1%.
Consider `N#Cc1ccc(-c2nnc3ccc(-c4ccc(OC(F)(F)F)cc4)nn23)cc1` [BHN-42, 4-{6-[4-(trifluoromethoxy)phenyl][1,2,4]triazolo[4,3-b]pyridazin-3-yl}benzonitrile], for which the inhibition at 10 µM came to 43.8%.
In the case of `Cn1cc(-c2nnc3ccc(-c4ccc(Oc5ccccc5)cc4)nn23)cn1` [BHN-43, 3-(1-methyl-1H-pyrazol-4-yl)-6-(4-phenoxyphenyl)[1,2,4]triazolo[4,3-b]pyridazine], the inhibition at 10 µM was 25.2%.
Same read-out and setting: the value for `COc1ccc(-c2ccc3nnc(-c4ccc(C#N)cc4)n3n2)cc1` [BHN-44, 4-[6-(4-methoxyphenyl)[1,2,4]triazolo[4,3-b]pyridazin-3-yl]benzonitrile] was 15%; that for `COc1ccc(-c2ccc3nnc(-c4cccc(C#N)c4)n3n2)cc1` [BHN-45, 3-[6-(4-methoxyphenyl)[1,2,4]triazolo[4,3-b]pyridazin-3-yl]benzonitrile] was 36.3%; that for `COC(=O)c1ccc(-c2ccc3nnc(C(F)(F)F)n3c2)cc1` [BHN-46, methyl 4-[3-(trifluoromethyl)[1,2,4]triazolo[4,3-a]pyridin-6-yl]benzoate] was 53.9%.
Take `CS(=O)(=O)c1ccc(-c2nnc3ccc(-c4ccc(Oc5ccccc5)cc4)nn23)cc1` [BHN-47, 3-[4-(methylsulfonyl)phenyl]-6-(4-phenoxyphenyl)[1,2,4]triazolo[4,3-b]pyridazine]: the inhibition at 10 µM was found to be 50.7%.
The same measure, in the same setting: in the case of `CC(C)(O)c1ccc(-c2ccc3nnc(C(F)(F)F)n3c2)cc1` [BHN-48, 2-{4-[3-(trifluoromethyl)[1,2,4]triazolo[4,3-a]pyridin-6-yl]phenyl}propan-2-ol] it was 18.9%; in that of `c1ccc(Oc2ccc(-c3ccc4nnc(-c5ccc(-c6nn[nH]n6)cc5)n4n3)cc2)cc1` [BHN-50, 6-(4-phenoxyphenyl)-3-[4-(2H-tetrazol-5-yl)phenyl][1,2,4]triazolo[4,3-b]pyridazine], 31%.
As for `N#Cc1cccc(-c2nnc3ccc(-c4ccc(F)cc4)nn23)c1` [BHN-51, 3-[6-(4-fluorophenyl)[1,2,4]triazolo[4,3-b]pyridazin-3-yl]benzonitrile], the inhibition at 10 µM stood at 40.5%.
Consider `Nc1cc(-c2ccc(OC(F)(F)F)cc2)cn2c(-c3ccccc3)nnc12` [BHN-52, 3-phenyl-6-[4-(trifluoromethoxy)phenyl][1,2,4]triazolo[4,3-a]pyridin-8-amine], for which the inhibition at 10 µM amounted to 44.9%.
In the case of `FC(F)(F)Oc1ccc(-c2ccc3nnc(-c4ccc(OC(F)(F)F)cc4)n3c2)cc1` [BHN-55, 3,6-bis[4-(trifluoromethoxy)phenyl][1,2,4]triazolo[4,3-a]pyridine], the inhibition at 1 µM was found to be 89.1% and the inhibition at 10 µM is 90.7%.
For `FC(F)(F)c1nnc2ccc(-c3ccc(-c4ccccc4)cc3)cn12` [BHN-57, 6-(biphenyl-4-yl)-3-(trifluoromethyl)[1,2,4]triazolo[4,3-a]pyridine], in that order: 45.8% and 39.5%.
Consider `COC(=O)/C=C/c1nc(C(F)(F)F)n2cc(-c3ccc(OC(F)(F)F)cc3)ccc12` [BHN-58, methyl (2E)-3-{6-[4-(trifluoromethoxy)phenyl]-3-(trifluoromethyl)imidazo[1,5-a]pyridin-1-yl}prop-2-enoate], for which the inhibition at 10 µM turned out to be 27.6%.
Consider `Cn1ncc2cc(-c3ccc4nnc(C(F)(F)F)n4c3)ccc21` [BHN-59, 6-(1-methyl-1H-indazol-5-yl)-3-(trifluoromethyl)[1,2,4]triazolo[4,3-a]pyridine], for which the inhibition at 10 µM turned out to be 39.8%.
For `CC(C)(O)c1nnc2ccc(-c3ccc(Oc4ccccc4)cc3)nn12` [BHN-60, 2-[6-(4-phenoxyphenyl)[1,2,4]triazolo[4,3-b]pyridazin-3-yl]propan-2-ol], the inhibition at 10 µM is 48.6%.
For the compound `FC(F)(F)c1nnc2ccc(-c3ccc(-n4cncn4)cc3)cn12` [BHN-61, 6-[4-(1H-1,2,4-triazol-1-yl)phenyl]-3-(trifluoromethyl)[1,2,4]triazolo[4,3-a]pyridine], the inhibition at 10 µM worked out at 23.5%.
Turning to `Fc1ccc(Oc2ccc(-c3ccc4nnc(C(F)(F)F)n4c3)cc2)cc1` [BHN-64, 6-[4-(4-fluorophenoxy)phenyl]-3-(trifluoromethyl)[1,2,4]triazolo[4,3-a]pyridine], the inhibition at 1 µM was determined as 38.2% and the inhibition at 10 µM was 69.6%.
